Measured values as given in patent publication US20060177853A1, “Antidepressant drug target” (The Scripps Research Institute, priority 2005, published 2006).
Values joined by “and” are separate entries in the source; they are usually repeats but may differ in a detail not shown here. Equal values may be shown once. “Also recorded” adds a separate entry of the source. Read-outs that look alike come from different tables or passages of the source. Square brackets hold non-standard residues; d marks the D form. Peptide text beside a SMILES is read from it. * marks the point of attachment. Fmoc = O=C(OCC1c2ccccc2-c2ccccc21)*; Cha = N[C@@H](CC1CCCCC1)C(=O)O; AMC = Cc1cc(=O)oc2cc(N*)ccc12

Experiments:
[1] = test system: GalR2 sites; experiment: GalR2 binding sites in brain tissue after treatment, saturating [125I]galanin binding with galanin (2-11) as competitor; assay type: in vivo, rat; conditions: FLX 10 mg/kg i.p. 14 days
Protocol: (§1) Tissue dissections. Tissues used for RNA extraction or binding study were rapidly dissected after sacrifice and immediately frozen on dry ice. All dissections were performed by an experienced neuroanatomist with a rat brain slicer and for small structures, like LC and DRN, the punching method was used to assure reproducible dissection.
(§2) Membrane preparation and binding assay. DRN and LC were dissected from a total of 16 rats per group and samples from 4 animals were pooled. […] Incubations were at room temperature for 45 minutes and terminated by rapid filtration through glass fiber filters (Packard, Meriden, Conn.). After three washes with cold PBS (pH 7.4) containing 0.01 % (v/v) Triton X 100, the filter was counted with Cobra II auto Gamma counting systems (Parkard Bioscience, Downer Grove, Ill.).
(§3) Neurol. […] Anxiety 2000, 12, 170-7; Nolen, W. A., et al. Int. Clin. Psychopharmacol. […] Neurol. […] As GalR3 is not abundant in the regions tested, GalR1 sites were estimated by subtracting GalR2 sites from the sum of GalR1 and GalR2 receptor sites. […] Neurol.
(§4) Drug treatments. Fluoxetine (FLX, Sigma, St. Louis, Mo.) was dissolved in saline and administered i.p. at a dose of 10 mg/kg daily for 14 days for biochemical studies. Separate groups of rats received daily i.p. injections of FLX or saline vehicle for 14 days for testing in the forced swim task. […]

[2] = test system: GalR1 sites; experiment: GalR1 binding sites in brain tissue after treatment, total galanin-binding sites minus GalR2 sites; assay type: in vivo; conditions: rat DRN, FLX 10 mg/kg i.p. 14 days
Protocol: as §1, §2, §3, §4

[3] = test system: galanin mRNA; experiment: Quantitative real time PCR of galanin mRNA in rat brain regions after treatment; assay type: in vivo
Protocol: as §1
Quantitative real time PCR. Brain tissues obtained from 12 rats (DRN, LC, paraventricular nucleus of hypothalamus) or 6 rats (prefrontal cortex, amygadala, hippocampus) were pooled and total RNA was prepared with Trizol reagent (Invitrogen, Carlsbad, Calif.) following manufacturer's instructions. For galanin mRNA quantification in DRN and LC after FLX treatment, the experiment was repeated with 3 independent pools of 4 rats per treatment per brain region. Aliquots of total RNA (2 μg) and oligo(dT) primers were then reverse transcribed with ThermoScript RT (Invitrogen) at 51° C. for 60 minutes. Quantitative PCR was performed using a Roche LightCycler and LightCycler Fast Start DNA Master SYBR Green I mix (Roche Applied Science, Indianapolis, Ind.). […] Real time PCR assays included an initial 10 minutes, 94° C. step to activate Taq polymerase, followed by 35 cycles of denaturation 94° C., 10 seconds, annealing 58° C., 10 seconds, and extension 72° C., 25 seconds. The results were expressed in arbitrary units normalized by the expression levels of the reference gene, β-actin.
(§5) Drug treatments. Fluoxetine (FLX, Sigma, St. Louis, Mo.) was dissolved in saline and administered i.p. at a dose of 10 mg/kg daily for 14 days for biochemical studies. Separate groups of rats received daily i.p. injections of FLX or saline vehicle for 14 days for testing in the forced swim task. On day 14, rats were administered FLX or saline i.p. at 45 minutes prior to the forced swim test and M40 (Bachem, King of Prussia, Pa.) or ACSF i.c.v. at 15 minutes prior to the forced swim test (see methods below). Single i.c.v. microinjections of M40 (8 nmol/2 μl ACSF) or ACSF (2 μl) were performed with a 10 μl Hamilton syringe connected via Becton Dickinson polyethylene tubing (PE20) to a 1.5 cm injector (Plastics One) fabricated from 31 gauge hypodermic tubing. The animal was allowed to freely explore a small cage during the infusion of 2 μl over 1.5 minutes, with each 1 μl separated by ten seconds, and an additional sixty seconds before the injector was withdrawn from the guide cannula. The treatments consisted of equal numbers of rats receiving one of the following combinations of treatments: saline+ACSF, saline+M40, FLX+ACSF, or FLX+M40. […] One week after the forced swim test, rats were randomly assigned to treatment groups. Rats were treated with vehicle, galnon or desipramine. Forty five minutes after injection, rats were subjected to the open field test.

[4] = test system: time spent active in forced swim test; experiment: Forced swim test; assay type: in vivo, rat
Protocol: Rats underwent aseptic stereotaxic surgery under ketamine (100 mg/kg, i.p.) xylazine (10 mg/kg, i.p.) anesthesia. A guide cannula 1.4 cm in length, of 26 gauge stainless steel hypodermic tubing (Plastics One, St. Louis, Mo.) was implanted into the right lateral ventricle at coordinates 0.5 mm posterior, 1.0 mm lateral to bregma, and 3.5 mm ventral to the surface of the skull. A 31 gauge stylet was secured to the guide cannula following the surgery. After surgery, rats were given at least 8 days recovery before the start of behavioral testing.
Fluoxetine (FLX, Sigma, St. Louis, Mo.) was dissolved in saline and administered i.p. at a dose of 10 mg/kg daily for 14 days for biochemical studies. Separate groups of rats received daily i.p. injections of FLX or saline vehicle for 14 days for testing in the forced swim task. On day 14, rats were administered FLX or saline i.p. at 45 minutes prior to the forced swim test and M40 (Bachem, King of Prussia, Pa.) or ACSF i.c.v. at 15 minutes prior to the forced swim test (see methods below). Single i.c.v. microinjections of M40 (8 nmol/2 μl ACSF) or ACSF (2 μl) were performed with a 10 μl Hamilton syringe connected via Becton Dickinson polyethylene tubing (PE20) to a 1.5 cm injector (Plastics One) fabricated from 31 gauge hypodermic tubing. The animal was allowed to freely explore a small cage during the infusion of 2 μl over 1.5 minutes, with each 1 μl separated by ten seconds, and an additional sixty seconds before the injector was withdrawn from the guide cannula. The treatments consisted of equal numbers of rats receiving one of the following combinations of treatments: saline+ACSF, saline+M40, FLX+ACSF, or FLX+M40. Additional treatment groups (n=10 per group) were examined in a separate forced swim test 45 minutes after i.p. injection of one of the following: 50% DMSO (w/v), galnon (Vulpes, Estonia; dissolved in 50% DMSO), or desipramine (Sigma, St Louis, Mo., 15 mg/kg in 50% DMSO).
Forced swim test. Rats were placed singly in a cylindrical glass container (48 cm height, 21 cm diameter) with tap water (25° C.) to a depth of 27 cm and tested for 10 minutes. Water was changed and the cylinder thoroughly rinsed after each test. Tests were recorded on videotape and later scored by an experienced observer blind to the experimental conditions of the rats.
Data for forced swim test studies utilizing galnon and desipramine were subject to a one factor analysis of variance (ANOVA), with drug treatment as the between subjects factor. For the M40 FLX study, data were subject to a two factor between subjects design, with chronic drug treatment (FLX vs vehicle) and i.c.v. drug (M40 vs ACSF) as the main factors. Significant main effects were followed up with Fisher's LSD posthoc test to determine specific group differences.

[5] = test system: seizures; conditions: Saar et al. 2002; cited from earlier work
[6] = test system: withdrawal signs; conditions: Zachariou et al. 2003, cited from earlier work
[7] = molecular target: T1, rat GalR2 (Rattus norvegicus, UniProt O08726); experiment: Displacement of [125I]galanin binding from membranes of GalR2-expressing cells; conditions: data not shown
T1 construct: expressed in transfected cells; host or cells: CHO cells, stably transfected
T1 sequence (O08726 1-372): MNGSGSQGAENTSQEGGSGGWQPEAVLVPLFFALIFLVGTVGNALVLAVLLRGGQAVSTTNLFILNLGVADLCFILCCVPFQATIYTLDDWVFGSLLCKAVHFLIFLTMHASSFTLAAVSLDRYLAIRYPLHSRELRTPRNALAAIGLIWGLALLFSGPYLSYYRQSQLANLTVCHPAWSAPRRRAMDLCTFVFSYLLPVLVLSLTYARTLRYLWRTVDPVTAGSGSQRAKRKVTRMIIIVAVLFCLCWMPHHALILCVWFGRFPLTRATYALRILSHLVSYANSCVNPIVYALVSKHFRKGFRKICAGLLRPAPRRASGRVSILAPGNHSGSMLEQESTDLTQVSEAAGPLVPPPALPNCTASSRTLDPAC
Description: Cell lines. Stably transfected Chinese Hamster Ovary (CHO) cells expressing rat GalR2, and Bowes' melanoma cells that express human GalR1, were cultivated as described earlier (Wang, S., et al. Biochemistry 1998, 37, 6711-7; and Heuillet, E., et al. Eur. J. Pharmacol. 1994, 269, 139-47).
Membrane preparation and binding assay. DRN and LC were dissected from a total of 16 rats per group and samples from 4 animals were pooled. Rat brain synaptic membranes (Lu, X., et al. Neurosci. Lett. 2000, 286, 149-53) and cells were prepared as previously described (Heuillet, E., et al. Eur. J. Pharmacol. 1994, 269, 139 47). Equilibrium binding of ^125I, galanin (2200 Ci/mmol, PerkinElmer Life Science, Boston, Mass.) to hippocampal membrane preparations was performed in 150 μL binding buffer [50 mM Tris Cl (pH 7.4), 5 mM MgCl2, 0.05 % (w/v) bovine serum albumin, supplemented with protease inhibitors]. Incubations were at room temperature for 45 minutes and terminated by rapid filtration through glass fiber filters (Packard, Meriden, Conn.). After three washes with cold PBS (pH 7.4) containing 0.01 % (v/v) Triton X 100, the filter was counted with Cobra II auto Gamma counting systems (Parkard Bioscience, Downer Grove, Ill.).

[8] = test system: locomotor activity (line crossing); experiment: Open field test; assay type: in vivo, rat; conditions: for locomotor activity in the open field (words): desipramine 15 mg/kg
Protocol: as §5, with “treatments. […]” for “treatments. Fluoxetine (FLX, Sigma, St.”, “and […]” for “and M40”, “or […].” for “or ACSF i.c.v.”, “or FLX+[…].” for “or FLX+M40.”, “groups. […]” for “groups. Rats were treated with vehicle, galnon or desipramine.”, “test. Open field test. One week after the forced swim test, rats were randomly assigned to treatment groups. […] The apparatus consisted of a square arena (100 by 100 cm), with a 40 cm high opaque white wall. The floor was marked into 9 equal segments and fluorescent light provided diffuse overhead illumination. Locomotor activity over 5 minutes was recorded on videotape. Tapes were later scored blind to the experimental condition of the animals. Line crossing behavior (defined as at least three paws in a square) was tallied and compared between experimental conditions.” for “test.”

[9] = test system: time spent active in forced swim test; conditions: dose that suppresses status epilepticus; Bartfai et al. 2004; cited from earlier work

## CNCCC(Oc1ccc(C(F)(F)F)cc1)c1ccccc1 (stereo not shown) [FLX, fluoxetine]
[1]; rat DRN
  increase in number of GalR2 binding sites in DRN: 50% and 58%
[1]; rat LC
  effect on GalR2 sites in LC: not in LC
[2]
  effect on number of GalR1 binding sites in DRN: without changes; also recorded: unaltered
[3]; rat DRN, FLX 10 mg/kg i.p. 14 days
  increase in galanin mRNA levels in DRN: 100%
[3]; rat DRN, FLX 10 mg/kg i.p. 14 days, pooled samples
  increase in galanin mRNA levels in DRN: 2 fold
[3]; rat DRN, FLX 14 days, three independent pools, P<0.05 vs Ctrl
  effect on galanin mRNA in DRN: increased galanin mRNA
[3]; rat LC, FLX 10 mg/kg i.p. 14 days, pooled samples
  increase in galanin mRNA levels in LC: 2.2 fold
[3]; rat LC, FLX 14 days
  effect on galanin mRNA in LC: increased galanin mRNA
[4]; FLX 10 mg/kg i.p. 14 days, 10 minute test, P<0.05
  increase in time spent active in the forced swim test vs saline-pretreated rats: ~46%
[4]; FLX 10 mg/kg i.p. 14 days, FLX+ACSF vs Saline+ACSF, p<0.05
  time spent active in the forced swim test: significant increase

## Cc1cc(=O)oc2cc(NC(=O)[C@H](CCCCN)NC(=O)[C@H](CC3CCCCC3)NC(=O)OCC3c4ccccc4-c4ccccc43)ccc12 [galnon] (Fmoc-[Cha]-Lys-{AMC})
[5]
  latency of phenyleneterazol induced seizures: increase the latency
[6]
  effect on withdrawal signs (words): attenuate several withdrawal signs
[6]; listed as Galnon
  effect on withdrawal signs (words): inhibit signs of opiate withdrawal
[4]; galnon 20 mg/kg i.p., p<0.05
  increase in activity in the forced swim test: significant
[4]; galnon 40 mg/kg i.p., p<0.01
  increase in activity in the forced swim test: significant
[4]; galnon 1-40 mg/kg i.p., 45 minutes after injection
  activity in the forced swim test: significant increase; also recorded: dose dependent increase
[7]
  Ki: 34.1 µM
[8]; galnon 20 mg/kg, p<0.01
  activity in the open field: significantly reduced
[8]; galnon 40 mg/kg, p<0.05
  activity in the open field: significantly reduced
[8]; higher doses of galnon, P<0.05 vs control
  activity in the open field: significantly reduced activity

## COC(=O)[C@H](CCCCN)NC(=O)[C@]1(C)NC(=O)c2nc(oc2C)[C@](C)(C(=O)NC2c3ccccc3-c3ccccc32)NC(=O)c2nc(oc2C)[C@](C)(C(=O)NCC2CCCCC2)NC(=O)c2nc1oc2C [galmic]
[9]
  effect in the forced swim test: antidepressant like effect

## CNCCCN1c2ccccc2CCc2ccccc21 [desipramine]
[4]; desipramine 15 mg/kg i.p., positive control
  activity in the forced swim test: significantly increased activity
[4]; desipramine 15 mg/kg i.p., positive control, p<0.001
  increase in activity in the forced swim test: 125%
[8]; p<0.01
  locomotor activity in the open field (words): significantly reduced activity
[8]; p<0.01, listed as Desipramine
  locomotor activity in the open field (words): significant reduction
